{
  "source": "paper PMC5218480",
  "about": "(PLoS ONE, 2017)",
  "system": "MV-4-11 cells",
  "test": "Gene expression microarray analysis (Affymetrix PrimeView) and GSEA",
  "assay_type": "cell-based, human",
  "parameters": "RFU PODN (11730768_x_at) / Fold change /veh PODN (11730768_x_at) / RFU LINC00158 (11744669_a_at) / Fold change /veh LINC00158 (11744669_a_at) / RFU DUSP10 (11751237_a_at) / Fold change /veh DUSP10 (11751237_a_at) / RFU ID3 (11757404_x_at) / Fold change /veh ID3 (11757404_x_at) / RFU PLEKHG5 (11737974_s_at) / Fold change /veh PLEKHG5 (11737974_s_at) / RFU LRRC4B (11730491_at) / Fold change /veh LRRC4B (11730491_at) / RFU GIMAP4 (11747438_a_at) / Fold change /veh GIMAP4 (11747438_a_at) / RFU KRT8 (11758183_x_at) / Fold change /veh KRT8 (11758183_x_at) / RFU CNN1 (11734310_a_at) / Fold change /veh CNN1 (11734310_a_at) / RFU VPS37D (11726825_at) / Fold change /veh VPS37D (11726825_at) / RFU C10orf10 (11716522_x_at) / Fold change /veh C10orf10 (11716522_x_at) / RFU KIR2DL2 /// KIR2DL4 /// KIR2DL5A /// KIR2DL5B /// KIR2DS1 /// KIR2DS2 /// KIR2DS3 /// KIR2DS4 /// KIR3DL3 /// KIR3DL3 /// KIR3DS1 (11738374_at) / Fold change /veh KIR2DL2 /// KIR2DL4 /// KIR2DL5A /// KIR2DL5B /// KIR2DS1 /// KIR2DS2 /// KIR2DS3 /// KIR2DS4 /// KIR3DL3 /// KIR3DL3 /// KIR3DS1 (11738374_at) / RFU C1QL1 (11718748_at) / Fold change /veh C1QL1 (11718748_at) / RFU TMPRSS4 (11747572_a_at) / Fold change /veh TMPRSS4 (11747572_a_at) / RFU HAMP (11756126_x_at) / Fold change /veh HAMP (11756126_x_at) / RFU RNFT2 (11725882_a_at) / Fold change /veh RNFT2 (11725882_a_at) / RFU NR4A2 (11747474_a_at) / Fold change /veh NR4A2 (11747474_a_at) / RFU ABCC12 (11746883_a_at) / Fold change /veh ABCC12 (11746883_a_at) / RFU TMEM136 (11760407_x_at) / Fold change /veh TMEM136 (11760407_x_at) / RFU CLDN22 /// WWC2 (11732394_at) / Fold change /veh CLDN22 /// WWC2 (11732394_at) / RFU HLA-DPB1 (11760878_x_at) / Fold change /veh HLA-DPB1 (11760878_x_at) / RFU SPINT1 (11716480_a_at) / Fold change /veh SPINT1 (11716480_a_at) / RFU GAP43 (11754022_s_at) / Fold change /veh GAP43 (11754022_s_at) / RFU A4GNT (11735810_at) / Fold change /veh A4GNT (11735810_at) / RFU PRB3 (11715151_x_at) / Fold change /veh PRB3 (11715151_x_at) / RFU TUBB4B (11761932_at) / Fold change /veh TUBB4B (11761932_at) / RFU CAPN14 (11732068_a_at) / Fold change /veh CAPN14 (11732068_a_at) / RFU TMCC2 (11721928_a_at) / Fold change /veh TMCC2 (11721928_a_at) / RFU IRGQ (11745062_a_at) / Fold change /veh IRGQ (11745062_a_at) / RFU FAM174B (11720279_a_at) / Fold change /veh FAM174B (11720279_a_at) / RFU TMPRSS4 (11748680_a_at) / Fold change /veh TMPRSS4 (11748680_a_at) / RFU FAM212B (11763350_a_at) / Fold change /veh FAM212B (11763350_a_at) / RFU PLEKHG5 (11743358_a_at) / Fold change /veh PLEKHG5 (11743358_a_at) / RFU ZSCAN30 (11745921_a_at) / Fold change /veh ZSCAN30 (11745921_a_at) / RFU CMKLR1 (11741424_a_at) / Fold change /veh CMKLR1 (11741424_a_at) / RFU LOC101060620 /// MAPK8IP1 (11723275_at) / Fold change /veh LOC101060620 /// MAPK8IP1 (11723275_at) / RFU SPTSSB (11747773_x_at) / Fold change /veh SPTSSB (11747773_x_at) / RFU PRSS12 (11739890_at) / Fold change /veh PRSS12 (11739890_at) / RFU BIN1 (11741810_x_at) / Fold change /veh BIN1 (11741810_x_at) / RFU WNT11 (11732464_a_at) / Fold change /veh WNT11 (11732464_a_at) / RFU C10orf10 (11716521_a_at) / Fold change /veh C10orf10 (11716521_a_at) / RFU C5orf56 (11738089_at) / Fold change /veh C5orf56 (11738089_at) / RFU CYB561 (11721691_x_at) / Fold change /veh CYB561 (11721691_x_at) / RFU ANKRD19P (11752326_a_at) / Fold change /veh ANKRD19P (11752326_a_at) / RFU OR2T12 /// OR2T33 /// OR2T8 (11738714_s_at) / Fold change /veh OR2T12 /// OR2T33 /// OR2T8 (11738714_s_at) / RFU VCAN (11748164_a_at) / Fold change /veh VCAN (11748164_a_at) / RFU JSRP1 (11732532_at) / Fold change /veh JSRP1 (11732532_at) / RFU KRTAP10-11 (11738290_x_at) / Fold change /veh KRTAP10-11 (11738290_x_at) / RFU MYO3A (11730013_a_at) / Fold change /veh MYO3A (11730013_a_at) / RFU EBF3 (11725865_a_at) / Fold change /veh EBF3 (11725865_a_at) / RFU CAMK2N1 (11719241_x_at) / Fold change /veh CAMK2N1 (11719241_x_at) / RFU C5orf56 (11738088_a_at) / Fold change /veh C5orf56 (11738088_a_at) / RFU OLFML3 (11715873_a_at) / Fold change /veh OLFML3 (11715873_a_at) / RFU LOC100653217 /// NTM (11731650_a_at) / Fold change /veh LOC100653217 /// NTM (11731650_a_at) / RFU MAPK11 (11762145_a_at) / Fold change /veh MAPK11 (11762145_a_at) / RFU FIZ1 (11724087_x_at) / Fold change /veh FIZ1 (11724087_x_at) / RFU OASL (11726364_x_at) / Fold change /veh OASL (11726364_x_at) / RFU SOX15 (11748057_x_at) / Fold change /veh SOX15 (11748057_x_at) / RFU CD79A (11719716_a_at) / Fold change /veh CD79A (11719716_a_at) / RFU HIST1H1D (11736915_at) / Fold change /veh HIST1H1D (11736915_at) / RFU CASKIN2 (11723855_a_at) / Fold change /veh CASKIN2 (11723855_a_at) / RFU LOC730098 (11760151_x_at) / Fold change /veh LOC730098 (11760151_x_at) / RFU OR4N2 (11742367_at) / Fold change /veh OR4N2 (11742367_at) / RFU PRRT2 (11749266_a_at) / Fold change /veh PRRT2 (11749266_a_at) / RFU SNX32 (11753110_a_at) / Fold change /veh SNX32 (11753110_a_at) / RFU CDHR5 (11726645_a_at) / Fold change /veh CDHR5 (11726645_a_at) / RFU RCAN1 (11760418_a_at) / Fold change /veh RCAN1 (11760418_a_at) / RFU FAM167A (11723789_a_at) / Fold change /veh FAM167A (11723789_a_at) / RFU FAM26E (11764081_at) / Fold change /veh FAM26E (11764081_at) / RFU ISYNA1 (11749810_s_at) / Fold change /veh ISYNA1 (11749810_s_at) / RFU ACY1 (11761880_at) / Fold change /veh ACY1 (11761880_at) / RFU 11764098_at / Fold change /veh 11764098_at / RFU SAMD14 (11745864_x_at) / Fold change /veh SAMD14 (11745864_x_at) / RFU NPB (11741838_a_at) / Fold change /veh NPB (11741838_a_at) / RFU TMPRSS6 (11731388_a_at) / Fold change /veh TMPRSS6 (11731388_a_at) / RFU KRTAP10-2 (11738614_at) / Fold change /veh KRTAP10-2 (11738614_at) / RFU ARHGAP8 /// PRR5-ARHGAP8 (11727945_x_at) / Fold change /veh ARHGAP8 /// PRR5-ARHGAP8 (11727945_x_at) / RFU KRTAP5-7 /// NADSYN1 (11734609_at) / Fold change /veh KRTAP5-7 /// NADSYN1 (11734609_at) / RFU RASL12 (11751679_a_at) / Fold change /veh RASL12 (11751679_a_at) / RFU CDKN2B (11736163_a_at) / Fold change /veh CDKN2B (11736163_a_at) / RFU PRF1 (11729649_at) / Fold change /veh PRF1 (11729649_at) / RFU, ZNF638 /// ZNF638-IT1 / Fold change vs veh, ZNF638 /// ZNF638-IT1 / RFU, PANK3 / Fold change vs veh, PANK3 / RFU, SH3YL1 / Fold change vs veh, SH3YL1 / RFU, ZEB2 / Fold change vs veh, ZEB2 / RFU, NRIP1 / Fold change vs veh, NRIP1 / RFU, PTTG1IP / Fold change vs veh, PTTG1IP / RFU, CAPN2 / Fold change vs veh, CAPN2 / RFU, MED14 / Fold change vs veh, MED14 / RFU, SNORA58 / Fold change vs veh, SNORA58 / RFU, C1orf63 / Fold change vs veh, C1orf63 / RFU, LRRFIP1 / Fold change vs veh, LRRFIP1 / RFU, NDUFAF7 / Fold change vs veh, NDUFAF7 / RFU, SLC12A2 / Fold change vs veh, SLC12A2 / RFU, IBTK / Fold change vs veh, IBTK / RFU, ESF1 / Fold change vs veh, ESF1 / Fold change vs veh, TMEM50B / RFU, TAOK1 / Fold change vs veh, TAOK1 / RFU, ACBD3 / Fold change vs veh, ACBD3 / RFU, TMA16 / Fold change vs veh, TMA16 / RFU, RWDD3 / Fold change vs veh, RWDD3 / RFU, BCAT1 / Fold change vs veh, BCAT1 / RFU, EDEM3 / Fold change vs veh, EDEM3 / RFU, TMEM33 / Fold change vs veh, TMEM33 / RFU, WDR75 / Fold change vs veh, WDR75 / RFU, AHCTF1 / Fold change vs veh, AHCTF1 / RFU, TFRC / Fold change vs veh, TFRC / RFU, ZDHHC17 / Fold change vs veh, ZDHHC17 / RFU, NOM1 / Fold change vs veh, NOM1 / RFU, ARL8B / Fold change vs veh, ARL8B / RFU, ZBTB11 / Fold change vs veh, ZBTB11 / RFU, TAMM41 / Fold change vs veh, TAMM41 / RFU, KIAA1704 /// LOC100996395 / Fold change vs veh, KIAA1704 /// LOC100996395 / RFU, ING1 / Fold change vs veh, ING1 / RFU, TRMT61B / Fold change vs veh, TRMT61B / RFU, FUBP3 / Fold change vs veh, FUBP3 / RFU, TP53 / Fold change vs veh, TP53 / RFU, TNKS2 / Fold change vs veh, TNKS2 / RFU, ZFP14 / Fold change vs veh, ZFP14 / RFU, ACTR2 / Fold change vs veh, ACTR2 / RFU, PPP3R1 / Fold change vs veh, PPP3R1 / RFU, PIK3R1 / Fold change vs veh, PIK3R1 / RFU, HNRNPA1 / Fold change vs veh, HNRNPA1 / RFU, RNF170 / Fold change vs veh, RNF170 / RFU, ZNF28 / Fold change vs veh, ZNF28 / RFU, RNGTT / Fold change vs veh, RNGTT / RFU, OGT / Fold change vs veh, OGT / RFU, BRD1 / Fold change vs veh, BRD1 / RFU, MARS / Fold change vs veh, MARS / RFU, ZNF655 / Fold change vs veh, ZNF655 / RFU, FAHD1 / Fold change vs veh, FAHD1 / RFU, BDP1 / Fold change vs veh, BDP1 / RFU, LRRCC1 / Fold change vs veh, LRRCC1 / RFU, ARID1A / Fold change vs veh, ARID1A / RFU, ZNF146 / Fold change vs veh, ZNF146 / RFU, ZNF330 / Fold change vs veh, ZNF330 / RFU, GPN3 / Fold change vs veh, GPN3 / RFU, C9orf123 / Fold change vs veh, C9orf123 / RFU, N4BP2L2 / Fold change vs veh, N4BP2L2 / RFU, ARFIP1 / Fold change vs veh, ARFIP1 / RFU, FAM179B / Fold change vs veh, FAM179B / RFU, BCL10 / Fold change vs veh, BCL10 / RFU, UHRF1BP1L / Fold change vs veh, UHRF1BP1L / RFU, BET1 / Fold change vs veh, BET1 / RFU, CNOT2 / Fold change vs veh, CNOT2 / RFU, ZNF268 / Fold change vs veh, ZNF268 / Fold change vs veh, ZNF507 / RFU, DGCR2 / Fold change vs veh, DGCR2 / RFU, WDSUB1 / Fold change vs veh, WDSUB1 / Fold change vs veh, HSP90B1 /// MIR3652 / RFU, ADSS / Fold change vs veh, ADSS / RFU, GK / Fold change vs veh, GK / RFU, ZNF148 / Fold change vs veh, ZNF148 / RFU, TAF9 / Fold change vs veh, TAF9 / RFU, SLC1A5 / Fold change vs veh, SLC1A5 / RFU, SLMO2 / Fold change vs veh, SLMO2 / RFU, ABCC4 / Fold change vs veh, ABCC4 / RFU, LOC101060439 /// RAP1B / Fold change vs veh, LOC101060439 /// RAP1B / RFU, RFX7 / Fold change vs veh, RFX7 / RFU, GTPBP10 / Fold change vs veh, GTPBP10 / RFU, CNEP1R1 / Fold change vs veh, CNEP1R1 / RFU, BIVM-ERCC5 /// ERCC5 / Fold change vs veh, BIVM-ERCC5 /// ERCC5 / RFU, ILF3 / Fold change vs veh, ILF3 / RFU 11762660_at / Fold change /veh 11762660_at / RFU VCAN (11757783_s_at) / Fold change /veh VCAN (11757783_s_at) / RFU DDX43 (11728927_at) / Fold change /veh DDX43 (11728927_at) / RFU KRT8 (11758188_x_at) / Fold change /veh KRT8 (11758188_x_at) / RFU NKD1 (11759106_at) / Fold change /veh NKD1 (11759106_at) / RFU SRD5A1 (11742802_a_at) / Fold change /veh SRD5A1 (11742802_a_at) / RFU TPSAB1 /// TPSB2 (11721975_s_at) / Fold change /veh TPSAB1 /// TPSB2 (11721975_s_at) / RFU GSTM3 (11746129_a_at) / Fold change /veh GSTM3 (11746129_a_at) / RFU IL23R (11737362_x_at) / Fold change /veh IL23R (11737362_x_at) / RFU TMEM51 (11727254_a_at) / Fold change /veh TMEM51 (11727254_a_at) / RFU PIWIL2 (11732686_x_at) / Fold change /veh PIWIL2 (11732686_x_at) / RFU ORM1 (11744905_x_at) / Fold change /veh ORM1 (11744905_x_at) / RFU CCDC152 (11743942_at) / Fold change /veh CCDC152 (11743942_at) / RFU ECM1 (11717891_a_at) / Fold change /veh ECM1 (11717891_a_at) / RFU IL23R (11748794_a_at) / Fold change /veh IL23R (11748794_a_at) / RFU TNFAIP8L3 (11732012_x_at) / Fold change /veh TNFAIP8L3 (11732012_x_at) / RFU MBOAT4 (11741988_at) / Fold change /veh MBOAT4 (11741988_at) / RFU 11764193_at / Fold change /veh 11764193_at / RFU TMEM53 (11763286_at) / Fold change /veh TMEM53 (11763286_at) / RFU MAGEB2 (11727129_at) / Fold change /veh MAGEB2 (11727129_at) / RFU TMEM200A (11744735_a_at) / Fold change /veh TMEM200A (11744735_a_at) / RFU CCDC152 (11751479_a_at) / Fold change /veh CCDC152 (11751479_a_at) / RFU FAM211A (11726209_a_at) / Fold change /veh FAM211A (11726209_a_at) / RFU RGS16 (11746705_a_at) / Fold change /veh RGS16 (11746705_a_at) / RFU VCAN (11755009_s_at) / Fold change /veh VCAN (11755009_s_at) / RFU RHOB (11743442_s_at) / Fold change /veh RHOB (11743442_s_at) / RFU RGS16 (11720943_a_at) / Fold change /veh RGS16 (11720943_a_at) / RFU RGS16 (11720944_at) / Fold change /veh RGS16 (11720944_at) / RFU, VPS4B / Fold change vs veh, VPS4B / RFU, CREB1 / Fold change vs veh, CREB1 / RFU, DNAJC13 / Fold change vs veh, DNAJC13 / RFU, GNAQ / Fold change vs veh, GNAQ / RFU, CDK5R1 / Fold change vs veh, CDK5R1 / RFU, ZRANB3 / Fold change vs veh, ZRANB3 / RFU, CUL4A / Fold change vs veh, CUL4A / RFU, CCNY / Fold change vs veh, CCNY / RFU, UFL1 / Fold change vs veh, UFL1 / RFU, COG3 / Fold change vs veh, COG3 / RFU, DIAPH2 / Fold change vs veh, DIAPH2 / RFU, SKA2 / Fold change vs veh, SKA2 / RFU, AFF3 / Fold change vs veh, AFF3 / RFU, LMF1 / Fold change vs veh, LMF1 / RFU, IPO11 / Fold change vs veh, IPO11 / RFU, DFFB / Fold change vs veh, DFFB / RFU, FOXP1 / Fold change vs veh, FOXP1 / RFU, CARD8 / Fold change vs veh, CARD8 / RFU, STRN3 / Fold change vs veh, STRN3 / RFU, ADK / Fold change vs veh, ADK / RFU, RASSF2 / Fold change vs veh, RASSF2 / RFU, WIPF1 / Fold change vs veh, WIPF1 / RFU, LARP1B / Fold change vs veh, LARP1B / RFU, RASA1 / Fold change vs veh, RASA1 / RFU, RB1 / Fold change vs veh, RB1 / RFU, PPFIA1 / Fold change vs veh, PPFIA1 / RFU, MAT2A / Fold change vs veh, MAT2A / RFU, CCT5 / Fold change vs veh, CCT5 / RFU, WDR92 / Fold change vs veh, WDR92 / RFU, CUX1 / Fold change vs veh, CUX1 / RFU, TTC7A / Fold change vs veh, TTC7A / RFU, TMEM135 / Fold change vs veh, TMEM135 / RFU, DEPTOR / Fold change vs veh, DEPTOR / RFU, CPM / Fold change vs veh, CPM / RFU, DNAJB6 / Fold change vs veh, DNAJB6 / RFU, CACNA2D3 / Fold change vs veh, CACNA2D3 / RFU, DTX4 / Fold change vs veh, DTX4 / RFU, TFCP2 / Fold change vs veh, TFCP2 / RFU, GMCL1 /// GMCL1P1 / Fold change vs veh, GMCL1 /// GMCL1P1 / RFU, AEBP2 / Fold change vs veh, AEBP2 / RFU, SNHG1 /// SNORD22 /// SNORD25 /// SNORD26 /// SNORD27 /// SNORD28 /// SNORD29 /// SNORD31 / Fold change vs veh, SNHG1 /// SNORD22 /// SNORD25 /// SNORD26 /// SNORD27 /// SNORD28 /// SNORD29 /// SNORD31 / Fold change (Aza/veh), C12orf56 (ProbeSet 11735607_a_at) / Fold change (ACY-1035/veh), C12orf56 (ProbeSet 11735607_a_at) / Fold change (Aza/veh), FGFR1OP (ProbeSet 11751329_s_at) / Fold change (ACY-1035/veh), FGFR1OP (ProbeSet 11751329_s_at) / Fold change (Aza/veh), VPS36 (ProbeSet 11739960_a_at) / Fold change (ACY-1035/veh), VPS36 (ProbeSet 11739960_a_at) / RFU SYPL1 (11715823_x_at) / Fold change /veh SYPL1 (11715823_x_at) / RFU IGFBP7 (11715501_s_at) / Fold change /veh IGFBP7 (11715501_s_at) / RFU REEP3 (11722064_at) / Fold change /veh REEP3 (11722064_at) / RFU IGLL1 (11728026_x_at) / Fold change /veh IGLL1 (11728026_x_at): dose or concentration left out as unconfirmed",
  "conditions": "ProbeSet 11745260_x_at; LIST B",
  "data": [
    {"smiles": "Nc1ccc(-c2cccs2)cc1NC(=O)c1ccc2c(c1)cc(C1CC1)n2CCN1CCOCC1", "note": "[ACY-1035]", "values": [
      {"measurement": "Fold change vs veh, SLC12A2", "value": 0.87}
    ]}
  ]
}
